Reference: patent publication US4994473A, “Pyridyl containing insecticides” (ICI Americas Inc., priority 1988, dated 1991)

Columns and labels:
Heliothis virescens = assay: Tobacco budworm egg dip test; format: in vivo, Tobacco Budworm Heliothis virescens (Fabricius); conditions: 2-day old eggs (TBW-E), percent of test compound in solution
Protocol: (§1) The compounds in Table I above were tested for insecticidal activity using the following testing procedures. LC50 values, based on the results of these tests and calculated according to dosage-mortality curves, are expressed in Table II.
Tobacco Budworm Heliothis virescens (Fabricius)
Eggs: Paper towel patches of 2-day old eggs of the tobacco budworm were dipped in acetone solutions of the test compound and placed in petri dishes containing a portion of larval rearing medium. Treated eggs were maintained at 78° F. and mortality was recorded after all control eggs had hatched and the young larvae were feeding on the media. Test concentrations ranged from 0.1% downward. The LC-50 value is expressed below in Table II under the heading "TBW-E" in terms of percent of the test compound in the solution.

Trichoplusia ni = assay: Cabbage looper larvae leaf-dip test; format: in vivo, Cabbage Looper Trichoplusia ni (Hubner); conditions: second instar larvae, percent of test compound in solution, 3-5 days
Protocol: as §1
Cabbage Looper Trichoplusia ni (Hubner)
The test compound was diluted in a 50--50 acetone-water solution Cotyledons of hyzini squash (Calabacita abobrinha), approximately 1×1.5 inches, were immersed in the test solutions for 2-3 seconds and placed on a wire screen to dry. The dried leaves were p1aced in petri dishes containing a moistened piece of filter paper and infested with 5 secondinstar cabbage looper larvae. The dishes were placed in a high humidity chamber. Mortality of the larvae was recorded 3-5 days later. Test concentrations ranged from 0.1% downward. The LC-50 value is expressed below in Table II under the heading "CL" in terms of percent of the test compound in solution.

[1] = test system: Diabrotica undecimpunctata undecimpunctata; assay: Western spotted cucumber beetle larvae soil test; format: in vivo; conditions: Diabrotica eggs/larvae; ppm of the test compound in the soil
Protocol: as §1
Western Spotted Cucumber Beetle Larvae Diabrotica undecimpunctata undecimpunctata (Mannherheim)
Ten grams of moist potting soil was placed in a plastic cup. The test compound was dissolved in acetone. A 0.05 ml aliquot of the test sample, diluted to the desired concentration, was added to the soil. The cup was capped and the soil was mixed on a vortex mixer for approximately 15 seconds. An indentation was made on the surface of the soil and approximately 50 Diabrotica eggs were added. The eggs were covered with soil and maintained at room temperature (approximately 70° F. or 21° C.). Four days later a section of Romaine lettuce (Latuca sativa) leaf was placed in the treated cups. One week later the cups were examined for live larvae. Test concentrations ranged from 25 ppm downward. The LC-50 value is expressed below in Table II under the heading "Diabrotica" in terms of ppm of the test compound in the soil.

Aphis fabae = assay: Black bean aphid spray test on nasturtium plants, mortality after 48 hours; format: in vivo, Black Bean Aphid Aphis fabae (Scop.); conditions: mixed ages, percent of test compound in sprayed solution
Protocol: as §1
Black Bean Aphid Aphis fabae (Scop.)
Nasturtium plants (Tropaeolum sp.) approximately 5 cm tall, were transplanted into sandy loam soil in small cups and infested with 25-50 black bean aphids of mixed ages. Twenty-four hours later they were sprayed to the point of runoff with 50--50 acetone-water solutions of the test compound. Treated plants were held in the greenhouse and mortality was recorded after 48 hours. Test concentrations ranged from 0.05% downward. The LC-50 value is expressed below in Table II under the heading "BA" in terms of percent of the test compound in the sprayed solution.

Musca domestica = assay: Housefly contact test, mortality after 48 hours; format: in vivo, Housefly Musca domestica; conditions: μg of the test compound per 25 female flies
Protocol: as §1
The test compound was diluted in acetone and aliquots pipetted onto the bottom of aluminum dishes. To ensure even spreading of the chemical on the bottom of the dishes, 1 ml of acetone containing 0.01% peanut oil was also added to each dish. After all solvents had evaporated, the dishes were placed in circular cardboard cages containing 25 female houseflies, 1-2 days old. The cages were covered on the bottom with cellophane and on the top with tulle netting, and each contained a sugar-water saturated cotton plug for maintenance of the flies. Mortality was recorded after 48 hours. Test levels ranged from 100 μg/25 female houseflies downward. The LC-50 value is expressed below in Table II under the heading "HF", in terms of μg of the test compound per 25 female flies.

Tetranychus urticae = assay: Two-spotted mite acaricidal test on pinto bean plants; format: in vivo, two-spotted mite Tetranychus urticae (Koch); conditions: percent concentration in solution, 5-7 days; for LC50 2-SM A: adults; for LC50 2-SM E: eggs
From the text: Acaricidal Evaluation Test
The two-spotted mite (2SM) [Tetranychus urticae (Koch)]was employed in tests for miticides. The test procedure was as follows:
Pinto bean plants (Phaseolus sp.) approximately 10 cm tall, were transplanted into sandy loam soil in small cups and thoroughly infested with two-spotted mites of mixed ages and sexes. Twenty-four hours later the infested plants were inverted and dipped for 2-3 seconds in 50--50 acetone-water solutions of the test compound. Treated plants were held in the greenhouse, and 5-7 days later mortality was determined for both adult mites and the nymphs hatching from eggs which were on the plants at the time of treatment. Test concentrations ranged from 0.05% downward. The LC-50 value is expressed below in Table II under the headings "2SM-A" (i.e., adults) and "2SM-E" (i.e. eggs) in terms of percent concentration of the test compound in the solution.

In the case of `CC(C)C(=Nc1ccc(OCC(F)(F)F)nc1)OCc1cccc(Oc2ccc(Cl)cc2)n1` [Compound 46], the “LC50 TBW” value (Heliothis virescens) was 0.017%, the “LC50 CL” value (Trichoplusia ni) was 0.00027% and the “LC50 Diabrotica” value [1] was over 25 ppm. The “LC50 BA” value (Aphis fabae) was 0.0003%, the “LC50 HF” value (Musca domestica) was under 100 µg and the “LC50 2-SM A” value (Tetranychus urticae) was 0.006%. The “LC50 2-SM E” value (Tetranychus urticae) was 0.006%.
In the case of `C=C(C)C(=Nc1ccc(Cl)nc1)OCc1cccc(Oc2ccccc2)c1` [Compound 47], the “LC50 TBW” value (Heliothis virescens) was under 0.1%, the “LC50 CL” value (Trichoplusia ni) was under 0.1% and the “LC50 Diabrotica” value [1] was over 25 ppm. The “LC50 BA” value (Aphis fabae) was 0.05%, the “LC50 HF” value (Musca domestica) was under 100 µg and the “LC50 2-SM A” value (Tetranychus urticae) was over 0.05%. The “LC50 2-SM E” value (Tetranychus urticae) was over 0.05%.
With `C=C(C)C(=Nc1ccc(Cl)nc1)OCc1ccc(F)c(Oc2ccc(Cl)cc2)c1` [Compound 48] the “LC50 TBW” value (Heliothis virescens) was under 0.1%, the “LC50 CL” value (Trichoplusia ni) was under 0.1% and the “LC50 Diabrotica” value [1] was over 25 ppm. For the same molecule, the “LC50 BA” value (Aphis fabae) was under 0.05%, the “LC50 HF” value (Musca domestica) was under 100 µg and the “LC50 2-SM A” value (Tetranychus urticae) was over 0.05%. The “LC50 2-SM E” value (Tetranychus urticae) was over 0.05%.
With `C=C(C)C(=Nc1ccc(Cl)nc1)OCc1ccc(F)c(Oc2ccccc2)c1` [Compound 49] the “LC50 TBW” value (Heliothis virescens) was 0.1%, the “LC50 CL” value (Trichoplusia ni) was under 0.1% and the “LC50 Diabrotica” value [1] was over 25 ppm. The “LC50 BA” value (Aphis fabae) was under 0.05%, the “LC50 HF” value (Musca domestica) was under 100 µg and the “LC50 2-SM A” value (Tetranychus urticae) was over 0.05%. The “LC50 2-SM E” value (Tetranychus urticae) was over 0.05%.
